Source: US6872742B2, “Substituted cyclic amine metalloprotease inhibitors” (The Procter & Gamble Company, priority 1996, dated 2005)

Experiments:
Type in all cases: in vivo
asthma sufferer = assay: Example E: inhalation aerosol used by an asthma sufferer; details: 5.0% w/v aerosol, 0.01 mL sprayed into the mouth while inhaling
Method: (§1) The compounds of the invention are useful to prepare compositions for the treatment of ailments and the like. […] In each case the compounds formula I may be substituted for the example compound shown below with similar results. […] The skilled practitioner will appreciate that the examples provide guidance and may be varied based on condition and the patient. A inhalation aerosol composition, according to the present invention, is made comprising: An asthma sufferer sprays 0.01 mL via a pump actuator into the mouth while inhaling.

[1] = test system: patient suffering from chemical burns; assay: Example D: topical composition applied by a patient suffering from chemical burns; details: 0.20% w/v topical composition at each dressing change (b.i.d.)
Text: as §1, with “topical composition for local administration,” for “inhalation aerosol composition,”, “A patient suffering from chemical burns applies” for “An asthma sufferer sprays 0.01 mL via a pump actuator into”, “composition at each dressing change (b.i.d.).” for “mouth while inhaling.”

[2] = test system: human subject suffering from osteoarthritis; assay: Example B: capsule given daily to a subject suffering from osteoarthritis; details: capsule containing 70 mg daily for 5 years, 90 kg person
Text: The compounds of the invention are useful to prepare compositions for the treatment of ailments and the like. […] In each case the compounds formula I may be substituted for the example compound shown below with similar results.
The skilled practitioner will appreciate that the examples provide guidance and may be varied based on condition and the patient.
A capsule for oral administration, according to the present invention, is made comprising:
A human subject weighing 90 kg (198 lbs), suffering from osteoarthritis, is treated by a method of this invention. Specifically, for 5 years, a capsule containing 70 mg of the compound of Example 3 is administered daily to said subject.

[3] = test system: patient having deep corneal abrasion; assay: Example C: saline-based eye drop applied by a patient having deep corneal abrasion; details: 5% w/w drop applied to each eye twice a day
Text: as §1, with “saline-based composition for local administration,” for “inhalation aerosol composition,”, “A patient having deep corneal abrasion applies the drop to each eye twice” for “An asthma sufferer sprays 0.01 mL via”, “day.” for “pump actuator into the mouth while inhaling.”

[4] = test system: human subject with a premetastatic tumor; assay: Example G: parenteral suspension injected next to a premetastatic tumor; details: 100 mg/ml suspension, approximately 2.0 ml injected beside the tumor twice daily for approximately 30 days
Text: The compounds of the invention are useful to prepare compositions for the treatment of ailments and the like. […] In each case the compounds formula I may be substituted for the example compound shown below with similar results. […] The skilled practitioner will appreciate that the examples provide guidance and may be varied based on condition and the patient. A composition for parenteral administration is made comprising: The above ingredients are mixed, forming a suspension. Approximately 2.0 ml of the suspension is administered, via injection, to a human subject with a premetastatic tumor. The injection site juxtaposes the tumor. This dosage is repeated twice daily, for approximately 30 days.

[5] = test system: human subject suffering from rheumatoid arthritis; assay: Example A: tablets given orally to a subject suffering from rheumatoid arthritis; details: tablet with 15 mg compound, three tablets per day orally for 2 years, 60 kg person
Text: The compounds of the invention are useful to prepare compositions for the treatment of ailments and the like. […] In each case the compounds formula I may be substituted for the example compound shown below with similar results. […] The skilled practitioner will appreciate that the examples provide guidance and may be varied based on condition and the patient. A tablet composition for oral administration, according to the present invention, is made comprising: A human subject weighing 60 kg (132 lbs), suffering from rheumatoid arthritis, is treated by a method of this invention. Specifically, for 2 years, a regimen of three tablets per day is administered orally to said subject.

COc1ccc(S(=O)(=O)N2C[C@@H](O)C[C@@H]2C(=O)NO)cc1 [Example 2, (1N)-4-Methoxyphenylsulfonyl-(2R)-N-hydroxycarboxamido-(4S)-hydroxypyrrolidine]
asthma symptoms (asthma sufferer): Asthma symptoms are diminished

COc1ccc(S(=O)(=O)N2C[C@H](O)C[C@H]2C(=O)NO)cc1 [Example 3, (1N)-4-Methoxyphenylsulfonyl-(2S)-N-hydroxycarboxanido-(4R)-hydroxypyrrolidine]
scarring [1]: Scarring is substantially diminished | orthoscopy finding at the end of the treatment period (erosion/fibrillation of the articular cartilage) [2]: no further advancement of erosion/fibrillation of the articular cartilage

COc1ccc(S(=O)(=O)N2C[C@@H](Oc3ccccc3)C[C@@H]2C(=O)NO)cc1 [Example 13, (1N)-4-Methoxyphenylsulfonyl-(2R)-N-hydroxycarboxamido-(4S)-phenoxypyrrolidine]
corneal healing [3]: Healing is speeded, with no visual sequelae

COc1ccc(S(=O)(=O)N2C[C@@H](O)C[C@H]2C(=O)NO)cc1 [Example 4, (1N)-4-Methoxyphenylsulfonyl-(2S)-N-hydroxycarboxanido-(4S)-hydroxy-pyrrolidine]
symptoms of the disease after 30 days [4]: symptoms of the disease subside

COc1ccc(S(=O)(=O)N2C[C@H](Sc3nccn3C)C[C@@H]2C(=O)NO)cc1 [Example 9, (1N)-4-Methoxyphenylsulfonyl-(2R)-N-hydroxycarboxado-(4R)-[(1N)-methyl-2-mercaptoimidazyl]-pyrrolidine]
findings on examination at the end of the treatment period (inflammation, mobility, pain) [5]: reduced inflammation, and improved mobility without concomitant pain
